Data: publication PMC6639268 (Journal of Virology, 2019)
Like-named read-outs stand apart in the source and are kept apart here.

Experiments:
[1] = test system: EBOV (HIV-1/EBOV-GP) pseudotyped virus; conditions: for IC50: read-out: IC50, Pseudotyped (no detergent)
EBOV trVLP [2] = test system: EBOV trVLP
in vitro [3] = conditions: human, CC50, Pseudotyped
in vitro [4] = conditions: human
[5] = test system: EBOV (HIV-1/EBOV-GP) pseudotyped virus; assay: microbe, parasite or virus in culture; conditions: Zaire ebolavirus, HEK-293T
EBOV trVLP [6] = assay: microbe, parasite or virus in culture; conditions: Zaire ebolavirus, HEK-293T, read-out: IC50, trVLP
EBOV-pseudotyped virus = type: cell-based, Zaire ebolavirus
293T cells = conditions: for Cytotoxicity in single-concentration screen: 25 μM; for CC50: human
[7] = test system: steroidogenic acute regulatory protein; conditions: cited from earlier work
[8] = test system: VSV (HIV-1/VSV-G) pseudotyped virus; type: cell-based, vesicular stomatitis virus
[9] = read-out: IC50, Pseudotyped (no detergent)

| SMILES | SI (CC50/IC50), Pseudotyped [1] | IC50 [1] | SI (CC50/IC50), trVLP (EBOV trVLP [2]) | CC50 (in vitro [3]) | CC50 (in vitro [4]) | IC50 [5, 9] | IC50 ([5]; read-out: IC50 with Tween 80) | IC50 (EBOV trVLP [6]) | Time point up to which maximum inhibition occurred (EBOV-pseudotyped virus) | Normalized luciferase signal (infectivity signal per cell as a fraction of the maximum) [1] | Cytotoxicity in single-concentration screen (293T cells) | CC50 (293T cells) | Activity on steroidogenic acute regulatory protein [7] | Inhibitory activity against VSV-G-pseudotyped virus entry [8] | Impact on cell viability (cytotoxicity curves) (293T cells) | IC50 (EBOV trVLP [2]; read-out: IC50, trVLP) |
| --- | --- | --- | --- | --- | --- | --- | --- | --- | --- | --- | --- | --- | --- | --- | --- | --- |
| CC(C)N[C@H]1C[C@@H](C(=O)CN2CCN(c3cccc(C(F)(F)F)c3)CC2)N(Cc2ccccc2)C1 [Compound S33] | 5.0 | 5.85 ± 5.2 µM | 5.7 | 29 ± 12.4 µM | 17.5 µM | < 10 µM | 8.12 ± 2.37 µM | 3.06 µM |  |  |  |  |  |  |  |  |
| CNC1CCN(c2nc3cc(OC)ccc3cc2CNCCc2ccc(OC)cc2)CC1 [Compound S49] |  | 5.06 µM | 5.9 | 66.6 ± 34 µM | 22.4 µM | < 10 µM | 17.8 ± 10.6 µM | 3.81 ± 3.16 µM |  |  |  |  |  |  |  |  |
| CN(Cc1cccc(OCCN2CCN(S(=O)(=O)C3CCCCC3Cl)CC2)c1)CC1CCC(=O)N1 (stereo not drawn) [Compound I53] | 3.0 |  | 3.5 | 110 ± 58 µM | 47.5 ± 31.8 µM | 36.7 µM | 35.3 µM | 13.6 ± 12.2 µM |  |  |  |  |  |  |  |  |
| CCOC(=O)[C@H]1O[C@@H]1C(=O)N[C@@H](CC(C)C)C(=O)NCCC(C)C [Compound E64d, E64d] |  |  |  |  |  |  |  |  | ≤ 80 min |  |  |  |  |  |  |  |
| Cc1ccc(C(=O)N/C(=C/c2ccc(-c3ccc(Br)cc3)o2)C(=O)NCCCN(C)C)cc1 [Compound I01] | 8.2 |  | 8.8 | 11 to 15 µM | 9.72 ± 3.23 µM |  | 2.48 ± 1.35 µM | 1.1 ± 0.99 µM |  | most activity | most cytotoxic | 14.6 ± 5.86 µM | nonspecific inhibitor |  |  |  |
| CCOc1ccc([C@@H](O)Cn2c(=N)n(CCN3CCCCC3)c3ccccc32)cc1 [Compound S03] |  | 5.79 ± 6.7 µM | 14.3 | 80 ± 45.5 µM | 57.6 ± 24.2 µM | < 10 µM | 5.21 µM | 4.04 µM |  |  |  |  |  |  |  |  |
| CN(C)[C@@H]1CCN(CC(c2ccccc2)c2ccccc2)C[C@@H]1CCC(=O)NCc1ccc2c(c1)OCO2 [Compound S31] | 8.9 | 4.77 µM | 11.1 | 42.4 ± 15.4 µM | 26.7 µM | < 5 µM | 4.68 ± 0.36 µM | 2.41 µM |  |  |  |  |  | least average inhibitory activity against VSV-G |  |  |
| CN1CCCC(CNC(=O)c2cc(NCc3ccccc3F)cc(S(=O)(=O)CNC(C)(C)C)c2)C1 (stereo not drawn) [Compound S58] |  |  | 25.8 |  | 105 ± 57.1 µM | 19.5 ± 18.9 µM | 40.5 ± 24.4 µM | 4.08 ± 0.88 µM |  |  |  |  |  | least average inhibitory activity against VSV-G | minimal impact on cell viability |  |
| COc1ccc(OC)c(CN2CCC[C@@H](c3ccnc(SCCN4CCCC4)n3)C2)c1 [Compound S36] | 10.6 | 6.29 ± 1.55 µM | 5.2 | 66.9 ± 33.3 µM | 16.5 µM | < 10 µM | 4.83 ± 1.11 µM | 3.19 µM |  |  |  |  |  |  |  |  |
| COc1ccc(CNCc2cc(F)cc(F)c2)cc1OC[C@H](O)CN1CCN(C)CC1 [Compound S29] | 4.4 | 25.7 ± 9 µM | 2.9 | 113 ± 82.2 µM | 75.1 ± 24.4 µM | ~26 µM | 5.03 ± 3.62 µM | > 20 µM |  |  |  |  |  | least average inhibitory activity against VSV-G |  | 26.3 ± 17.1 µM |
| CCN1CCC[C@@H]1CN(CC1CCN(COC)CC1)C(=O)CCc1ccc(F)cc1 [Compound S42] |  |  | 11.2 |  | 124 ± 71.2 µM | 11.6 ± 9.95 µM | 36.5 ± 16.6 µM | 11.1 ± 12.9 µM |  |  |  |  |  |  | minimal impact on cell viability |  |
| COc1ccc(CN2CCOc3cc(O[C@H]4CCCN(C)C4)cc(-c4ccc(C)s4)c3C2)c(O)c1 [Compound I49] | 3.8 | 2.91 ± 0.63 µM |  | 11 to 15 µM |  | < 5 µM | 3.12 ± 0.68 µM | 2.67 ± 1.49 µM |  | most activity | most cytotoxic | 11 ± 6.46 µM |  | least average inhibitory activity against VSV-G |  |  |
